# Test results reported in patent publication US4472304A, “(Amido)N-substituted bleomycins, salts thereof and process for preparation thereof” (Nippon Kayaku Kabushiki Kaisha, priority 1981, dated 1984).
# Tests used:
# [1] = test system: Mycobacterium smegmatis ATCC 607; assay: Antimicrobial activity against Mycobacterium smegmatis ATCC 607 (agar plate-cylinder); type: cell-based; details: standard bleomycin A2 (copper-free) assumed 1,000 mcg potency/mg
# Description: (§1) 2. ANT[…] MYC[…] ATCC 607 AND BACILLUS SUBTILIS
# (§2) The antimicrobial activity was tested against the captioned test organisms by the method of agar plate-cylinder. The activity was recorded on the assumption that the activity of standard sample of bleomycin A2 (copper-free form) is 1,000 mcg poteney/mg.
# Bacillus subtilis = assay: Antimicrobial activity against Bacillus subtilis (agar plate-cylinder); type: cell-based; details: standard bleomycin A2 (copper-free) assumed 1,000 mcg potency/mg
# Description: as §1, §2
# [2] = target: T1, bleomycin-inactivating enzyme (Rattus norvegicus, UniProt P70645); details: rated under conditions where inactivation of bleomycin B2 is 50%; 37° C., 40 minutes; residual activity against M. smegmatis ATCC 607
# T1 sequence (P70645 1-454): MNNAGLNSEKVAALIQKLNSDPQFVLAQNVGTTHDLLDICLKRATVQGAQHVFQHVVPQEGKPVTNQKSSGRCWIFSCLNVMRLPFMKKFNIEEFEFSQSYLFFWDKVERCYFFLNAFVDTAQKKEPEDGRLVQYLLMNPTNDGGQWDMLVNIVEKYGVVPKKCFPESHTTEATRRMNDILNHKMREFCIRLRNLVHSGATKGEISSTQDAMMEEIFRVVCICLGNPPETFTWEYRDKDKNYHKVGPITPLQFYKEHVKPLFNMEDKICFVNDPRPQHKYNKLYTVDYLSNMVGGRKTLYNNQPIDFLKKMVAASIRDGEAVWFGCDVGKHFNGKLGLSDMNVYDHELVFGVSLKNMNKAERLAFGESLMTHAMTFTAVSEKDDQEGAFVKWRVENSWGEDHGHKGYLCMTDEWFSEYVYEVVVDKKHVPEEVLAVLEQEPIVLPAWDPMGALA
# pulmonary fibrosis = assay: Pulmonary toxicity (pulmonary fibrosis) in mice
# [3] = ICR mice, 5 mg/kg i.p. once a day for 10 days, points 0, 1, 2, 4, 6
Resistance of Cu-free compound against inactivating enzyme (degree of inactivation) [2],SMILES,Antimicrobial potency of Cu-free compound against Mycobacterium smegmatis ATCC 607 [1] [mcg potency/mg],Antimicrobial potency of Cu-free compound against Bacillus subtilis (Bacillus subtilis) [mcg potency/mg],"Incidence: Number of mice with pulmonary fibrosis (%) (pulmonary fibrosis; ICR mice, 5 mg/kg i.p. once a day for 10 days, 5 weeks observation)","Incidence: Number of mice with pulmonary fibrosis (pulmonary fibrosis; ICR mice, 5 mg/kg i.p. once a day for 10 days, 5 weeks observation, mice with fibrosis/total)",Grade: Total score of pulmonary fibrosis/total number of samples (pulmonary fibrosis; [3]),Grade: Total score of pulmonary fibrosis/total number of samples (%) (pulmonary fibrosis; [3]),"Ratio (by comparison with ""Bleomycin Complex"") (pulmonary fibrosis; versus Bleomycin Complex)"
+ +++,"CCN(CC)CCCC(C)NC(=O)C(N)CNC(CC(N)=O)c1nc(N)c(C)c(C(=O)NC(C(=O)NC(C)C(O)C(C)C(=O)NC(C(=O)NCCc2nc(-c3nc(C(=O)NCCCNC(C)c4ccccc4)cs3)cs2)C(C)O)C(OC2OC(CO)C(O)C(O)C2OC2OC(CO)C(O)C(OC(N)=O)C2O)c2cnc[nH]2)n1 [Compound 36, 3-((S)-1'-phenylethylamino)propylamino-(amido)N--[4-diethylamino-1-methylbutyl]-BLM]",6061,3694,,,,,
+++ +,"CCCCN(CCCC)CCCNC(=O)C(N)CNC(CC(N)=O)c1nc(N)c(C)c(C(=O)NC(C(=O)NC(C)C(O)C(C)C(=O)NC(C(=O)NCCc2nc(-c3nc(C(=O)NCCC[N+](CC)(CC)CCCN(Cc4ccccc4)Cc4ccccc4)cs3)cs2)C(C)O)C(OC2OC(CO)C(O)C(O)C2OC2OC(CO)C(O)C(OC(N)=O)C2O)c2cnc[nH]2)n1 (centres unmarked) [Compound 57, 3-{N,N--diethyl-N--[3-(dibenzylamino)propyl]amino}propylamino-(amido)N--[3-(di-n-butylamino)propyl]-BLM]",25924,1831,0,0/9,0/27,0,0
